System: 885724-159-R-J1-PDC complex spheroid viability
Assay: Anticancer human tumor 885724-159-R-J1-PDC patient-derived pancreatic adenocarcinoma cell line growth inhibition [POLQ]
Details: for IC50: curve of first compound; for viability, T/C: stronger effect = lower value; active = viability on the fitted dose curve at most 10% of control; inactive = the rest
Method in brief: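 Growth inhibition in 3D: complex spheroids (tumor PDC, HUVEC, MSC) treated with POLQ inhibitor combinations; where Cmax unknown, highest tested concentration 10 microM, except SN-38 at 1 microM.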

[1] = second compound 0.0316 µM, first compound 0.0316 µM
[2] = second compound 0.0316 µM, first compound 0.1 µM
[3] = second compound 0.0316 µM, first compound 0.316 µM
[4] = second compound 0.0316 µM, first compound 1 µM
[5] = second compound 0.0316 µM, first compound 3.16 µM
[6] = second compound 0.0316 µM, first compound 10 µM
[7] = second compound 0.1 µM, first compound 0.0316 µM
[8] = second compound 0.1 µM, first compound 0.1 µM
[9] = second compound 0.1 µM, first compound 0.316 µM
[10] = second compound 0.1 µM, first compound 1 µM
[11] = second compound 0.1 µM, first compound 3.16 µM
[12] = second compound 0.1 µM, first compound 10 µM
[13] = second compound 0.316 µM, first compound 0.0316 µM
[14] = second compound 0.316 µM, first compound 0.1 µM
[15] = second compound 0.316 µM, first compound 0.316 µM
[16] = second compound 0.316 µM, first compound 1 µM
[17] = second compound 0.316 µM, first compound 3.16 µM
[18] = second compound 0.316 µM, first compound 10 µM
[19] = second compound 1 µM, first compound 0.0316 µM
[20] = second compound 1 µM, first compound 0.1 µM
[21] = second compound 1 µM, first compound 0.316 µM
[22] = second compound 1 µM, first compound 1 µM
[23] = second compound 1 µM, first compound 3.16 µM
[24] = second compound 1 µM, first compound 10 µM
[25] = second compound 3.16 µM, first compound 0.0316 µM
[26] = second compound 3.16 µM, first compound 0.1 µM
[27] = second compound 3.16 µM, first compound 0.316 µM
[28] = second compound 3.16 µM, first compound 1 µM
[29] = second compound 3.16 µM, first compound 3.16 µM
[30] = second compound 3.16 µM, first compound 10 µM
[31] = second compound 10 µM, first compound 0.0316 µM
[32] = second compound 10 µM, first compound 0.1 µM
[33] = second compound 10 µM, first compound 0.316 µM
[34] = second compound 10 µM, first compound 1 µM
[35] = second compound 10 µM, first compound 3.16 µM
[36] = second compound 10 µM, first compound 10 µM
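Note: spheroids exposed to compounds for 7 days.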

CCc1cc2c(N3CCc4c(cc(Cn5ccnc5)cc4-c4cn(C)nc4C(F)(F)F)C3=O)cc(C)nc2c(OC)n1 + Cc1cccc(N(C)C(=O)C2C(O)CCN2c2nc(C)cc(C(F)(F)F)c2C#N)c1
inactive: viability, T/C [1] 86.5% | viability, T/C [2] 82% | viability, T/C [3] 84.8% | viability, T/C [4] 75.2% | viability, T/C [5] 83.1% | viability, T/C [6] 70.1% | viability, T/C [7] 85.9% | viability, T/C [8] 86.2% | viability, T/C [9] 84.6% | viability, T/C [10] 81.7% | viability, T/C [11] 78.5% | viability, T/C [12] 68.1% | viability, T/C [13] 89.1% | viability, T/C [14] 83.5% | viability, T/C [15] 84.3% | viability, T/C [16] 83.9% | viability, T/C [17] 77.4% | viability, T/C [18] 68.7% | viability, T/C [19] 93.5% | viability, T/C [20] 92.1% | viability, T/C [21] 86% | viability, T/C [22] 79.2% | viability, T/C [23] 76.1% | viability, T/C [24] 68% | viability, T/C [25] 93.2% | viability, T/C [26] 84.9% | viability, T/C [27] 88.2% | viability, T/C [28] 84.5% | viability, T/C [29] 72.9% | viability, T/C [30] 75.4% | viability, T/C [31] 83.9% | viability, T/C [32] 91% | viability, T/C [33] 87.5% | viability, T/C [34] 81.6% | viability, T/C [35] 75.8% | viability, T/C [36] 71%
> 10 µM: IC50 (second compound 0.0316 µM) | IC50 (second compound 0.1 µM) | IC50 (second compound 0.316 µM) | IC50 (second compound 1 µM) | IC50 (second compound 3.16 µM) | IC50 (second compound 10 µM)

CCc1cc2c(N3CCc4c(cc(Cn5ccnc5)cc4-c4cn(C)nc4C(F)(F)F)C3=O)ccnc2c(OC)n1 + Cc1cccc(N(C)C(=O)C2C(O)CCN2c2nc(C)cc(C(F)(F)F)c2C#N)c1
inactive: viability, T/C [1] 94% | viability, T/C [2] 82.9% | viability, T/C [3] 81.8% | viability, T/C [4] 89.2% | viability, T/C [5] 74.3% | viability, T/C [6] 78.4% | viability, T/C [7] 104% | viability, T/C [8] 81.7% | viability, T/C [9] 88.6% | viability, T/C [10] 83.6% | viability, T/C [11] 84.7% | viability, T/C [12] 63.8% | viability, T/C [13] 96% | viability, T/C [14] 89.9% | viability, T/C [15] 84.4% | viability, T/C [16] 89.1% | viability, T/C [17] 82.5% | viability, T/C [18] 59.5% | viability, T/C [19] 83.8% | viability, T/C [20] 84.7% | viability, T/C [21] 92.4% | viability, T/C [22] 79.7% | viability, T/C [23] 85.5% | viability, T/C [24] 62.8% | viability, T/C [25] 94.2% | viability, T/C [26] 85.5% | viability, T/C [27] 86.6% | viability, T/C [28] 89.7% | viability, T/C [29] 79.4% | viability, T/C [30] 72.6% | viability, T/C [31] 92.8% | viability, T/C [32] 83.7% | viability, T/C [33] 86.4% | viability, T/C [34] 87.8% | viability, T/C [35] 72.7% | viability, T/C [36] 63.5%
> 10 µM: IC50 (second compound 0.0316 µM) | IC50 (second compound 0.1 µM) | IC50 (second compound 0.316 µM) | IC50 (second compound 1 µM) | IC50 (second compound 3.16 µM) | IC50 (second compound 10 µM)

COc1cc2cc(C(=O)CCC(=O)O)sc2cc1OC + Cc1cccc(N(C)C(=O)C2C(O)CCN2c2nc(C)cc(C(F)(F)F)c2C#N)c1
inactive: viability, T/C [1] 108% | viability, T/C [2] 104% | viability, T/C [3] 100% | viability, T/C [4] 103% | viability, T/C [5] 107% | viability, T/C [6] 95.6% | viability, T/C [7] 114% | viability, T/C [8] 103% | viability, T/C [9] 96.9% | viability, T/C [10] 104% | viability, T/C [11] 99.2% | viability, T/C [12] 103% | viability, T/C [13] 99.5% | viability, T/C [14] 106% | viability, T/C [15] 89.2% | viability, T/C [16] 109% | viability, T/C [17] 98.4% | viability, T/C [18] 85.7% | viability, T/C [19] 105% | viability, T/C [20] 114% | viability, T/C [21] 93.1% | viability, T/C [22] 104% | viability, T/C [23] 105% | viability, T/C [24] 93.5% | viability, T/C [25] 116% | viability, T/C [26] 96.5% | viability, T/C [27] 103% | viability, T/C [28] 98% | viability, T/C [29] 104% | viability, T/C [30] 88.6% | viability, T/C [31] 101% | viability, T/C [32] 105% | viability, T/C [33] 99.2% | viability, T/C [34] 102% | viability, T/C [35] 87.7% | viability, T/C [36] 92.5%
> 10 µM: IC50 (second compound 0.0316 µM) | IC50 (second compound 0.1 µM) | IC50 (second compound 0.316 µM) | IC50 (second compound 1 µM) | IC50 (second compound 3.16 µM) | IC50 (second compound 10 µM)

From PubChem BioAssay AID1963832 (Molecular Pharmacology Branch, DTP, NCI, 2024)
